Results taken from US12281122B1, “PI3K inhibitors” (Cogent Biosciences, Inc., priority 2023, dated 2025).

Tests used:
[1] = test system: SKBR3 (PI3Kα-Wild Type) cell line; experiment: HTRF phospho-AKT(S473) cell assay in SKBR3 cells; assay type: cell-based, human; conditions: Homo sapiens, SK-BR-3, 2 hours compound incubation, PDGF-BB stimulated
Procedure, shortened: (§1)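 T47D (PI3Kα-H1047R; RPMI, 10% FBS, insulin) and SKBR3 (wild-type PI3Kα; McCoy's 5A, 10% FBS) cells treated 2 h at 37 °C with 12-point 1:3 dilutions, top 5 μM and 10 μM respectively, ≤0.5% DMSO. SKBR3 stimulated with 70 ng/ml PDGF-BB for the last 15 min; lysate pAKT(S473) by HTRF, IC50 from curves.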

[2] = test system: T47D (PI3Kα-H1047R) cell line; experiment: HTRF phospho-AKT(S473) cell assay in T47D cells; assay type: cell-based, human; conditions: Homo sapiens, 2 hours compound incubation
Procedure, shortened: as §1

[3] = HTRF phospho-AKT(S473), SKBR3 (PI3Kα-Wild Type) cells
[4] = HTRF phospho-AKT(S473), T47D (PI3Kα-H1047R) cells
[5] = SKBR3 (PI3Kα-Wild Type) cells, HTRF phospho-AKT(S473)
[6] = T47D (PI3Kα-H1047R) cells, HTRF phospho-AKT(S473)

| Structure (SMILES) | IC50 [1, 3] [µM] | IC50 [2, 4] [µM] | other results |
| --- | --- | --- | --- |
| Cc1cc([C@@H](C)Nc2ccc(Cl)nc2C(=O)NS(C)(=O)=O)c2nc(N3CCC(c4ncc(Cl)cn4)CC3)n(C)c(=O)c2c1 [Compound 499, (R)-6-chloro-3-((1-(2-(4-(5-chloropyrimidin-2-yl)piperidin-1-yl)-3,6-dimethyl-4-oxo-3,4-dihydroquinazolin-8-yl)ethyl)amino)-N-(methylsulfonyl) picolinamide] | ≥ 5 | 0.25 to 0.5 |  |
| Cc1cc([C@@H](C)Nc2ccc(Cl)nc2C(=O)NS(C)(=O)=O)c2nc(N3CC[C@@H](Oc4cnn(C)c4)C3)n(C)c(=O)c2c1 [Compound 320, 6-chloro-3-(((R)-1-(3,6-dimethyl-2-((R)-3-((1-methyl-1H-pyrazol-4-yl)oxy)pyrrolidin-1-yl)-4-oxo-3,4-dihydroquinazolin-8-yl)ethyl)amino)-N-(methylsulfonyl) picolinamide] |  |  | IC50 [1, 5]: 1 to 5 µM; IC50 [2, 6]: < 0.25 µM |
| Cc1cc([C@@H](C)Nc2ccc(Cl)nc2C(=O)NS(C)(=O)=O)c2nc(N3Cc4cnn(-c5cccnc5C)c4C3)n(C)c(=O)c2c1 [Compound 252, (R)-6-chloro-3-((1-(3,6-dimethyl-2-(1-(2-methylpyridin-3-yl)-4,6-dihydropyrrolo[3,4-c]pyrazol-5(1H)-yl)-4-oxo-3,4-dihydroquinazolin-8-yl)ethyl)amino)-N-(methylsulfonyl) picolinamide] |  |  | IC50 [1, 5]: 1 to 5 µM; IC50 [2, 6]: < 0.25 µM |
| Cc1cc([C@@H](C)Nc2ccc(Cl)nc2C(=O)NS(=O)(=O)C2COC2)c2nc(N3Cc4cn(-c5ccccc5C)nc4C3)n(C)c(=O)c2c1 [Compound 628, (R)-6-chloro-3-((1-(3,6-dimethyl-4-oxo-2-(2-(o-tolyl)-2,6-dihydropyrrolo[3,4-c]pyrazol-5(4H)-yl)-3,4-dihydroquinazolin-8-yl)ethyl)amino)-N-(oxetan-3-ylsulfonyl)picolinamide] | ≥ 5 | 0.25 to 0.5 |  |
| Cc1cc([C@@H](C)Nc2ccc(Cl)nc2C(=O)NS(C)(=O)=O)c2nc(N3CCC4(CCOCC4)CC3)n(C)c(=O)c2c1 [Compound 690, (R)-6-chloro-3-((1-(3,6-dimethyl-4-oxo-2-(3-oxa-9-azaspiro[5.5]undecan-9-yl)-3,4-dihydroquinazolin-8-yl)ethyl)amino)-N-(methylsulfonyl) picolinamide] | 1 to 5 | < 0.25 |  |
| Cc1cc([C@@H](C)Nc2ccc(Cl)nc2C(=O)NS(C)(=O)=O)c2nc(N3CCC(c4nn(C)nc4C)CC3)n(C)c(=O)c2c1 [Compound 506, (R)-6-chloro-3-((1-(2-(4-(2,5-dimethyl-2H-1,2,3-triazol-4-yl)piperidin-1-yl)-3,6-dimethyl-4-oxo-3,4-dihydroquinazolin-8-yl)ethyl)amino)-N-(methylsulfonyl) picolinamide] | 1 to 5 | < 0.25 |  |
| CCn1c(N2C[C@@H]3[C@H](C2)[C@H]3c2cnc(C)nc2)nc2c([C@@H](C)Nc3ccc(Cl)nc3C(=O)NS(C)(=O)=O)cc(C)cc2c1=O [Compound 584, 6-chloro-3-(((R)-1-(3-ethyl-6-methyl-2-((1R,5S,6S)-6-(2-methylpyrimidin-5-yl)-3-azabicyclo[3.1.0]hexan-3-yl)-4-oxo-3,4-dihydroquinazolin-8-yl)ethyl)amino)-N-(methylsulfonyl) picolinamide] | 1 to 5 | < 0.25 |  |
| Cc1cc([C@@H](C)Nc2ccc(Cl)nc2C(=O)NS(C)(=O)=O)c2nc(-c3ccc4nn(C)cc4n3)n(C)c(=O)c2c1 [Compound 841, (R)-6-chloro-3-((1-(3,6-dimethyl-2-(2-methyl-2H-pyrazolo [4,3-b]pyridin-5-yl)-4-oxo-3,4-dihydroquinazolin-8-yl)ethyl)amino)-N-(methylsulfonyl) picolinamide] |  |  | IC50 ([1]; SKBR3 (PI3Kα-Wild Type) cell line, phospho-AKT(S473) HTRF): 1 to 5 µM; IC50 ([2]; T47D (PI3Kα-H1047R) cell line, phospho-AKT(S473) HTRF): 0.25 to 0.5 µM |
| Cc1cc([C@@H](C)Nc2ccc(Cl)nc2C(=O)NS(C)(=O)=O)c2nc(N3Cc4cn(CC(F)F)nc4C3)n(C)c(=O)c2c1 [Compound 230, (R)-6-chloro-3-((1-(2-(2-(2,2-difluoroethyl)-2,6-dihydropyrrolo[3,4-c]pyrazol-5(4H)-yl)-3,6-dimethyl-4-oxo-3,4-dihydroquinazolin-8-yl)ethyl)amino)-N-(methylsulfonyl) picolinamide] |  |  | IC50 [1, 5]: 1 to 5 µM; IC50 [2, 6]: < 0.25 µM |
| C[C@@H](Nc1ccc(Cl)nc1C(=O)NS(C)(=O)=O)c1cc(F)cc2c(=O)n(C)c(N3C[C@@H]4[C@H](C3)[C@H]4c3ccn(C)n3)nc12 [Compound 373, 6-chloro-3-(((R)-1-(6-fluoro-3-methyl-2-((1R,5S,6R)-6-(1-methyl-1H-pyrazol-3-yl)-3-azabicyclo[3.1.0]hexan-3-yl)-4-oxo-3,4-dihydroquinazolin-8-yl)ethyl)amino)-N-(methylsulfonyl) picolinamide] |  |  | IC50 [1, 5]: 1 to 5 µM; IC50 [2, 6]: 0.25 to 0.5 µM |

Now from value to compound, other results behind:

| IC50 [1, 3] [µM] | IC50 [2, 4] [µM] | Structure (SMILES) | other results |
| --- | --- | --- | --- |
| ≥ 5 | 0.25 to 0.5 | Cc1cc([C@@H](C)Nc2ccc(Cl)nc2C(=O)NS(C)(=O)=O)c2nc(N3C[C@@H]4C[C@]4(c4cnc(C)cn4)C3)n(C)c(=O)c2c1 (relative stereo) [Compound 750, 6-chloro-3-(((R)-1-(3,6-dimethyl-2-((1R*,5R*)-1-(5-methylpyrazin-2-yl)-3-azabicyclo[3.1.0]hexan-3-yl)-4-oxo-3,4-dihydroquinazolin-8-yl)ethyl)amino)-N-(methylsulfonyl) picolinamide] |  |
| ≥ 5 | 1 to 5 | Cc1cc([C@@H](C)Nc2ccc(Cl)nc2C(=O)NS(C)(=O)=O)c2nc([C@H]3[C@@H]4CN(c5ncc(Cl)cn5)C[C@@H]43)n(C)c(=O)c2c1 [Compound 825, 6-chloro-3-(((R)-1-(2-((1R,5S,6r)-3-(5-chloropyrimidin-2-yl)-3-azabicyclo[3.1.0]hexan-6-yl)-3,6-dimethyl-4-oxo-3,4-dihydroquinazolin-8-yl)ethyl)amino)-N-(methylsulfonyl) picolinamide] |  |
| ≥ 5 | 0.25 to 0.5 | Cc1cc([C@@H](C)Nc2ccc(Cl)nc2C(=O)NS(C)(=O)=O)c2nc(N3C[C@@H]4CC(c5cnc(C)nc5)C[C@H]4C3)n(C)c(=O)c2c1 (mixture of isomers) [Compound 762, 6-chloro-3-(((R)-1-(3,6-dimethyl-2-((3aRS,6aRS)-5-(2-methylpyrimidin-5-yl)hexahydrocyclopenta [c]pyrrol-2(1H)-yl)-4-oxo-3,4-dihydroquinazolin-8-yl)ethyl)amino)-N-(methylsulfonyl) picolinamide] |  |
| ≥ 5 | 0.25 to 0.5 | Cc1cc([C@@H](C)Nc2ccc(Cl)nc2C(=O)NS(C)(=O)=O)c2nc(-c3ccc4oc(C)nc4c3)n(C)c(=O)c2c1 [Compound 821, (R)-6-chloro-3-((1-(3,6-dimethyl-2-(2-methylbenzo[d]oxazol-5-yl)-4-oxo-3,4-dihydroquinazolin-8-yl)ethyl)amino)-N-(methylsulfonyl) picolinamide] |  |
| 1 to 5 | < 0.25 | Cc1cc([C@@H](C)Nc2ccc(Cl)nc2C(=O)NS(C)(=O)=O)c2nc(-c3ccc(-c4cnn(C)c4)c(F)c3)n(C)c(=O)c2c1 [Compound 794, (R)-6-chloro-3-((1-(2-(3-fluoro-4-(1-methyl-1H-pyrazol-4-yl)phenyl)-3,6-dimethyl-4-oxo-3,4-dihydroquinazolin-8-yl)ethyl)amino)-N-(methylsulfonyl) picolinamide] |  |
